# From paper PMC6270878, “Trigocherrierin A, a Potent Inhibitor of Chikungunya Virus Replication” (Molecules, 2014)
# Columns and labels:
# [1] = test system: chikungunya virus (CHIKV); test: Chikungunya virus-cell based antiviral assay (inhibition of virus-induced cell death, MTS readout); details: for EC50: Chikungunya virus, Vero, read-out: EC50 (50% effective concentration, inhibits CHIKV-induced cell death by 50%); for selectivity index (SI), CC50 Vero/EC50 CHIKV: ratio of CC50 to EC50
# in vitro = details: African green monkey
Compound,EC50 [1],"selectivity index (SI), CC50 Vero/EC50 CHIKV [1]",CC50 (in vitro)
"CC1CCCCCCC(C)C(=O)OC2C(=CCl)C=C3C2(O)C(O)C2(CO)OC2C2C4OC5(c6ccccc6)OC(C(C)C32O5)C4(O)C(O)(CO)C1 (centres unmarked) [Compound 2, Trigocherriolide E]",0.7 ± 0.1 µM,9.4,6.6 ± 0.6 µM
"CCN(CC)CCCC(C)Nc1ccnc2cc(Cl)ccc12 (centres unmarked) [Chloroquine, chloroquine, reference compound]",10 ± 5 µM,,89 ± 28 µM
"C=C(C)C12OC3(c4ccccc4)OC1C1C4OC4(CO)C(O)C4(O)C(O)C(C)=CC4C1(O3)C(C)C2OC(=O)C(C)CCCCCCCC (centres unmarked) [Compound 1, Trigocherrierin A]",0.6 ± 0.1 µM,71.7,43 ± 16 µM
